{"source": "patent US9579401B2", "about": "“Staining composition” (Medical Technology Transfer Holding B.V., priority 2010, dated 2017)", "experiment": "Stability of trypan blue and brilliant blue G in polymer solutions, 70° C. for 7 days, absorbance spectra", "conditions": "0.025% (w/v)"}
{"smiles": "CCOc1ccc(Nc2ccc(/C(=C3C=C/C(=[N+](/CC)Cc4cccc(S(=O)(=O)[O-])c4)C=C/3C)c3ccc(N(CC)Cc4cccc(S(=O)(=O)[O-])c4)cc3C)cc2)cc1.[Na+]", "note": "[brilliant blue G]", "values": [{"measurement": "stability of brilliant blue G (difference absorbance spectra)", "setting": "4% (w/v) PEG Mw≈3350", "result": "excellent solvent"}, {"measurement": "stability of brilliant blue G (difference absorbance spectra)", "setting": "PVA Mw≈13,000-23,000", "result": "much less stable"}]}
